# Reference: patent US20130012485A1, “ORGANIC COMPOUNDS” (priority 2006, published 2013)
# Molecular target: T1, human DPP-IV (Homo sapiens, UniProt P27487)
# T1 construct: Human DPP-IV consisting of amino acids 39 to 766 followed by a C-terminal Streptavidin-tag; Streptavidin-tag (C); made in house
# Test: Activity assay: inhibitory activity to human DPP-IV, fluorogenic substrate H-Gly-Pro-AMC
# Assay type: biochemical
# Conditions: H-Gly-Pro-AMC 10 μM, room temperature, monitored for 1 hour
# Description: Various Example compounds were tested for their inhibitory activity to human DPP-IV.
# Human DPP-IV consisting of amino acids 39 to 766 followed by a C-terminal Streptavidin-tag was expressed using the baculovirus system and purified to >80% purity. The enzyme was stored in 25 mM Tris buffer, pH 9.0, containing 300 mM NaCl at −80° C.
# The fluorogenic substrates H-Gly-Pro-AMC was purchased from Bachem AG (Bubendorf, Switzerland). The substrate was kept as a 5 mM stock solution in DMSO at −20° C. All other chemicals were purchased from Sigma (Buchs, Switzerland).
# The assay buffer for the DPP-IV reaction was 25 mM Tris/HCl, pH 7.5, containing 140 mM NaCl, 10 mM KCl and 0.05% (w/v) CHAPS.
# The test compounds were dissolved in 90% DMSO/10% H2O (v/v). Serial dilutions of the compounds from 3 mM to 0.03 μM in 90% DMSO/10% H2O (v/v) followed by a 1:33.3 dilution in assay buffer was done in 96-well polypropylene plates using a CyBio Dilus 8-channel pipettor (CyBio AG, Jena, Germany) with tip change after each pipetting step. The compound solutions as well as the substrate and the enzyme solutions were transferred to the assay plates (384-well black Cliniplate; cat. no. 95040020 Labsystems Oy, Finland) by means of a CyBi-Well 96-channel pipettor (CyBio AG, Jena, Germany).
# Enzyme kinetics were measured by mixing 10 μl of a 3-fold concentrated substrate solution in assay buffer (final substrate concentration was 10 μM) with 10 μl of the corresponding compound solution. The reactions were initiated by addition of 10 μl of a 3-fold concentrated solution of the enzyme in assay buffer. Final enzyme (active site) concentrations in the assay was […] for DPP-IV. Fluorescence product (AMC) formation was monitored for 1 hour at room temperature at 35 second intervals by measuring the fluorescence emission at 500 nm using an exitation wavelength of 350 nm in a TECAN Ultra fluorescence reader (TECAN, Maennedorf, Switzerland). The fluorescence in each well was excited by one flash per measurement. The Origin software package (Origin 7.5 Mircocal, Northampton, Mass., USA) was used to generate all graphs and to perform the IC50 calculations.
# T1 sequence (P27487 39-766): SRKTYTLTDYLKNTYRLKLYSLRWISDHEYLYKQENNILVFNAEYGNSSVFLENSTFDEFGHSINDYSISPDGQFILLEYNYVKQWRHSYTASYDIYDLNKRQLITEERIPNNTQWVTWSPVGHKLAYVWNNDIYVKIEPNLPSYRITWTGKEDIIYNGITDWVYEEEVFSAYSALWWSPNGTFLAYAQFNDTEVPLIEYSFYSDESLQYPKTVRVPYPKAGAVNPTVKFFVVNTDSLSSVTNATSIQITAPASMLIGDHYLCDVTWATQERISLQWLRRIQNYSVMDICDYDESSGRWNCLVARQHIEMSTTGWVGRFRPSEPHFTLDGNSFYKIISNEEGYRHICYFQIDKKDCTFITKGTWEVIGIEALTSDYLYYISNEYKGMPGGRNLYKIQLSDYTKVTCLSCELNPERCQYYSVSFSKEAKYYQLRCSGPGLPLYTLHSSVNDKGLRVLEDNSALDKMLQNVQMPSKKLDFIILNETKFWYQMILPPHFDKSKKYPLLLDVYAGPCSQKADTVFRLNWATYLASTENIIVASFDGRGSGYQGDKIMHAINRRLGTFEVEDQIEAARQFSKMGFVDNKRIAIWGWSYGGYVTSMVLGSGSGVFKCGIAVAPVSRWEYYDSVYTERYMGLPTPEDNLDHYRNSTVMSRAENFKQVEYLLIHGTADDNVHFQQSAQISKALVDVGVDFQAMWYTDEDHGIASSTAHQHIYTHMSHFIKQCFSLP
row,IC50 [nM],SMILES
1,400,CS(=O)(=O)c1ccc(CN[C@H]2CC[C@](CN)(c3cccc(Cl)c3)CC2)cc1
2,250,Cc1ccnc([C@]2(CN)CC[C@@H](N3CCn4c(nnc4C(F)(F)F)C3)CC2)c1
3,100,CCOC(=O)N1CCC(N2CC(=O)N([C@H]3CC[C@](CN)(c4cccc(Cl)c4)CC3)CC2=O)CC1
4,200,NC[C@]1(c2cccc(Cl)c2)CC[C@H](N2C(=O)OC[C@H]2Cc2ccccc2)CC1
5,500,NC[C@]1(c2cccc(Cl)c2)CC[C@H](n2nc(-c3cnn(Cc4ccccc4)c3)ccc2=O)CC1
6,50,Cn1ccc2cc(C(=O)N[C@H]3CC[C@](CN)(c4cccc(Cl)c4)CC3)ccc21
7,11600,Cc1nc(=O)c2c([nH]1)CCC(CN)(c1cccc(Cl)c1)C2 (stereo not drawn)
8,850,CC1CC(=O)N([C@]2(CN)CC[C@@H](N3CCn4c(nnc4C(F)(F)F)C3)CC2)C1 (stereo partly drawn)
9,5050,Cc1cccc(C2(CN)CCC(N3CCn4c(nnc4C(F)(F)F)C3)C2)c1 (stereo not drawn)
10,200,NCC1(c2cccc(Cl)c2)CCC(Oc2ccc(Br)cn2)CC1 (stereo not drawn)
11,450,NC[C@]1(c2cccc(Cl)c2)CC[C@H](N(Cc2ccn[nH]2)C(=O)c2cccnc2)CC1
12,850,Cc1n[nH]c(C)c1CCn1cc(-c2ccc(=O)n([C@H]3CC[C@](CN)(c4cccc(Cl)c4)CC3)n2)nn1
